Laboratory results published in PMC9724248, “Anticancer peptide Q7 suppresses the growth and migration of human endometrial cancer by inhibiting DHCR24 expression and modulating the AKT-mediated pathway” (International Journal of Medical Sciences, 2022).
Where two headings read alike, the source gives them in different places. Where no end group is shown, it is not given here.

Legend:
Type in all cases: cell-based, human
HUVEC = details: MTT, 48 h, mean ± SD, ND: no detection, read-out: IC50 (50% decrease of cell viability)
Method: (§1) Cells were seeded into 96-well tissue culture plates at a concentration of 1×10^4 cells/200 μl/well overnight. Subsequently, the cells were treated with serial dilutions of ACP, scrambled ACP, or non-ACP. After 48 h of incubation, the cell viability of each line was determined by the MTT colorimetric assay (Sigma-Aldrich).

HEC-1-A cells [1] = test: MTT cytotoxicity of anticancer peptides
Method: as §1

AKT = test: Western blot of AKT phosphorylation; details: HEC-1-A, 100 µM, 6 h (Fig. S3)
Method: The cells were lysed on ice with 100 μl of lysis buffer and centrifuged at 13,000 g for 20 min at 4 °C. The lysate proteins were quantified using BCA Protein Assay Reagent. Each sample load comprised 30 μg total proteins per lane and was resolved by 12.5% SDS-PAGE. After being transferred onto the PVDF membranes, the membranes were blocked with 5% skimmed dried milk for 1 h and incubated overnight with primary antibodies, including anti-DHCR24, anti-AKT, anti-pAKT, anti-p-GSK3beta, anti-mTOR, and anti-p-mTOR (dilution: 1:1,000; Thermo); anti-S6K1, anti-p-p53, anti-cyclin D1, and anti-cleaved caspase 3 (dilution: 1:500; Thermo); anti-pS6K1 (dilution: 1:2,000; Thermo); anti-p53 and anti-GSK3beta (dilution: 1:200; Thermo); anti-BAX (dilution: 1:2,000; Thermo); anti-p-FoxO3A, anti-HIF-1α, and anti-actin (dilution: 1:1,500; GeneTex Inc., Irvine, CA, USA). The membrane was then washed and incubated with anti-rabbit IgG secondary antibodies followed by horseradish peroxidase. The protein expressions were visualized with an ECL kit (Pierce, Rockford, IL, USA) according to the manufacturer's instructions. Actin acted as the loading control.
Figure S3. Q7 repressed the phosphorylation of AKT-kinase.
After 6 h incubation of Q7 (100 µM), sQ7 and nACP, the AKT protein expression of
HEC-1-A cells was detected by using western blotting.
(1 picture or pasted object on this page, not shown here)

HEC-1-A cells [2] = test: Wound healing assay (Culture-Insert); details: peptides 50 µM, 24 h
Method: HEC-1-A cells (3×10^4 cells/70 μl/well) were seeded into a Culture-Insert 2 well (Ibidi, Munich, Germany) overnight. Afterward, inserts were removed, peptides (50 µM) were added, the status of the scratch wounds was monitored using an inverted microscope at 0 h (removal of Culture-Insert) and 24 h, and representative images were collected. The results were presented as the percentage of wound closure, calculated as follows: [wound area (initial) - wound area (final)]/wound area (initial)×100. The wound area was measured using software image J.

[3] = HEC-1-A, MTT, 48 h, mean ± SD, read-out: IC50 (50% decrease of cell viability)

Row | Molecule | IC50 (HUVEC) [µM] | IC50 (HEC-1-A cells [1]; [3]) [µM] | other results
1 | CSCC[C@H](N)C(=O)N[C@@H](CCC(=O)O)C(=O)N[C@@H](Cc1ccccc1)C(=O)N[C@H](C(=O)N[C@@H](C)C(=O)N[C@@H](CCCCN)C(=O)N[C@@H](CC(C)C)C(=O)N[C@@H](Cc1ccccc1)C(=O)N[C@@H](CCCCN)C(=O)N[C@@H](Cc1ccccc1)C(=O)N[C@@H](Cc1ccccc1)C(=O)N[C@@H](CCCCN)C(=O)N[C@@H](CC(=O)O)C(=O)N[C@@H](CC(C)C)C(=O)N[C@@H](CC(C)C)C(=O)NCC(=O)N[C@@H](CCCCN)C(=O)N[C@@H](Cc1ccccc1)C(=O)N[C@@H](CC(C)C)C(=O)NCC(=O)N[C@@H](CC(N)=O)C(=O)N[C@@H](CC(N)=O)C(=O)O)C(C)C [ACP NO. 3] | 9.72 ± 0.84 | 8.78 ± 0.77 | 
2 | EQQQQQQPQNRRFRE [Q7] |  |  | IC50 (HEC-1-A cells [1]; 48 h): 130 ± 7.53 µM
3 | FKGGGPYGQGVTRGQDLSGKDF [ACP NO. 1] | 29.1 ± 1.72 | 27.5 ± 2.5 | 
4 | GLLGVLGSVAKHVLPHVVPVIAEHL [ACP NO. 8] | 26.1 ± 2.38 | 23.7 ± 2.19 | 
5 | RQPQNQRQEQFQEQR [sQ7, reference compound] |  |  | IC50 (HEC-1-A cells [1]; HEC-1-A, MTT, 0-400 μM, 48 h (Fig. 1A), mean ± SD, read-out: fifty percent of growth inhibition concentration (IC50)): 158 ± 13.9 µM
6 | nACP: non-ACP (nACP), human HSP27_36-50 (PRLPEEWSQWLGGSS; UniProt P04792 36-50, looked up, fragment) |  |  | level of phosphorylation of AKT (AKT): no obvious effect; wound closure rate (HEC-1-A cells [2]): 85%; toxic effects on HEC-1-A cells (HEC-1-A cells [1]; MTT, 48 h, up to 400 μM): not obviously toxic effects
